Literature values, collected in US20080112918A1, “Method for treating gout and binding uric acid” (priority 2001, published 2008).

Settings: administered orally; treatment of gouty arthritis

COc1cc2c(c(OC)c1OC)-c1ccc(OC)c(=O)cc1[C@@H](NC(C)=O)CC2 [colchicine]
people who cannot tolerate the drug because of side effects: 80%
